Test results: the supplement of paper PMC10307832

Tests used:
Assay in all cases: relative viability (nuclei count vs DMSO), 5 days (fraction); higher = more cells survive
Idelalisib + Navitoclax = compound: CC[C@H](Nc1ncnc2[nH]cnc12)c1nc2cccc(F)c2c(=O)n1-c1ccccc1 [Idelalisib] + CC1(C)CCC(c2ccc(Cl)cc2)=C(CN2CCN(c3ccc(C(=O)NS(=O)(=O)c4ccc(N[C@H](CCN5CCOCC5)CSc5ccccc5)c(S(=O)(=O)C(F)(F)F)c4)cc3)CC2)C1 [Navitoclax] (partner 0.5 µM)
Summary of the method: (§1)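 Five library-drug doses in √10 steps were combined with a fixed anchor-drug dose, or a single drug was given alone, by pin tool to lung cancer cell lines in 1536-well plates the day after seeding. Nuclei were stained and counted after 5 days. Relative viability is the nuclei count in treated wells over that in vehicle wells, taken as the median of duplicate plates.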

Pemetrexed + Linsitinib = compound: Nc1nc2[nH]cc(CCc3ccc(C(=O)N[C@@H](CCC(=O)O)C(=O)O)cc3)c2c(=O)[nH]1 [Pemetrexed] + C[C@]1(O)C[C@@H](c2nc(-c3ccc4ccc(-c5ccccc5)nc4c3)c3c(N)nccn32)C1 [Linsitinib] (partner 1 µM)
Summary of the method: as §1

Idelalisib + Pemetrexed = compound: CC[C@H](Nc1ncnc2[nH]cnc12)c1nc2cccc(F)c2c(=O)n1-c1ccccc1 [Idelalisib] + Nc1nc2[nH]cc(CCc3ccc(C(=O)N[C@@H](CCC(=O)O)C(=O)O)cc3)c2c(=O)[nH]1 [Pemetrexed] (partner 0.2 µM)
Summary of the method: as §1

Idelalisib + Bortezomib = compound: CC[C@H](Nc1ncnc2[nH]cnc12)c1nc2cccc(F)c2c(=O)n1-c1ccccc1 [Idelalisib] + CC(C)C[C@H](NC(=O)[C@H](Cc1ccccc1)NC(=O)c1cnccn1)B(O)O [Bortezomib] (partner 0.002 µM)
Summary of the method: as §1

Cell Line	relative viability (Idelalisib + Navitoclax; first compound 0.04 µM)	relative viability (Idelalisib + Navitoclax; first compound 0.1265 µM)	relative viability (Idelalisib + Navitoclax; first compound 0.4 µM)	relative viability (Idelalisib + Navitoclax; first compound 1.265 µM)	relative viability (Idelalisib + Navitoclax; first compound 4 µM)	relative viability (Pemetrexed + Linsitinib; first compound 0.002 µM)	relative viability (Pemetrexed + Linsitinib; first compound 0.006325 µM)	relative viability (Pemetrexed + Linsitinib; first compound 0.02 µM)	relative viability (Pemetrexed + Linsitinib; first compound 0.06325 µM)	relative viability (Pemetrexed + Linsitinib; first compound 0.2 µM)	relative viability (Idelalisib + Pemetrexed; first compound 0.04 µM)	relative viability (Idelalisib + Pemetrexed; first compound 0.1265 µM)	relative viability (Idelalisib + Pemetrexed; first compound 0.4 µM)	relative viability (Idelalisib + Pemetrexed; first compound 1.265 µM)	relative viability (Idelalisib + Pemetrexed; first compound 4 µM)	relative viability (Idelalisib + Bortezomib; first compound 0.04 µM)	relative viability (Idelalisib + Bortezomib; first compound 0.1265 µM)	relative viability (Idelalisib + Bortezomib; first compound 0.4 µM)	relative viability (Idelalisib + Bortezomib; first compound 1.265 µM)	relative viability (Idelalisib + Bortezomib; first compound 4 µM)
NCI-H1651	0.73	1.09	1.01	1.07	0.792	0.995	0.977	0.987	0.903	0.895	0.634	0.355	0.537	0.522	0.59	1	0.913	0.939	1.01	1.02
NCI-H1666	0.892	0.928	0.835	0.804	0.69	0.71	0.774	0.829	0.73	0.615	0.821	0.835	0.844	0.847	0.996	1.02	0.866	0.742	0.849	0.779
NCI-H1734	0.746	0.841	0.654	0.724	0.584	0.909	0.818	0.971	0.861	0.718	0.417	0.455	0.399	0.363	0.364	0.813	1.07	0.828	0.922	0.725
NCI-H1755	0.964	0.959	0.923	0.836	0.687	0.883	0.966	1.02	0.988	0.951	0.431	0.415	0.38	0.434	0.438	0.931	0.939	0.937	1.05	0.85
NCI-H1792	0.464	0.587	0.617	0.667	0.645	0.499	0.532	0.57	0.469	0.519	0.707	1.09	0.45	0.823	0.631	0.552	0.952	0.844	0.968	0.843
NCI-H1915	0.797	0.772	0.812	0.78	0.764	1.11	1.08	1.13	1.11	1.07	0.503	0.514	0.443	0.363	0.504	0.968	1.03	0.928	1.04	0.997
NCI-H1975	1.1	1.08	1.12	1.06	0.692		0.904	1.06	0.793	0.526	0.292	0.334	0.29	0.276	0.303	0.34	0.374	0.385	0.371	0.343
NCI-H1993	0.844	0.971	0.762	0.912	0.75	0.824	0.697	0.815	0.698	0.692	0.592	0.67	0.548	0.614	0.59	1.14	1.22	0.852	0.976	0.771
NCI-H2009	1.11	1.17	1.19	1.22	1.18	0.979	1.1	1.3	1.17	1.11	0.99	0.996	1.03	1.09	0.991	1.02	1.07	0.995	1.14	0.991
NCI-H2023	1.05	1.02	0.994	0.945	0.939	0.738	0.537	0.693	0.55	0.304	0.244	0.239	0.212	0.169	0.256	1.11	1.09	0.681	1.03	0.871
NCI-H2085	1.23	1.16	0.951	0.938	0.764	0.872	0.828	0.881	0.942	0.97	0.909	0.852	0.789	0.746	0.528	0.916	1.08	0.983	1.06	0.848
NCI-H2087	0.885	0.938	0.98	1.03	0.823	0.886	0.889	1.02	0.767	0.635	0.742	0.671	0.657	0.637	0.695	0.765	1.01	0.787	1.07	0.671
NCI-H2126	0.896	0.861	0.813	0.805	0.789	0.696	0.686	0.718	0.692	0.729	0.848	0.739	0.523	0.769	0.619	1.14	1.15	1.13	1.14	1.21
NCI-H2228	1.04	0.569	0.742	1.03	0.666	0.708	0.472	0.906	0.553	0.425	0.369	0.323	0.407	0.312	0.325	1.07	0.983	1.09	1.05	1.03
NCI-H2347	0.89	0.667	0.737	0.767	0.618	0.874	0.932	0.938	0.716	0.521	0.436	0.423	0.436	0.452	0.402	0.971	0.982	0.971	0.774	0.799
NCI-H2405	1.01	0.759	0.716	0.766	0.622	1.01	0.913	1.03	0.894	0.975	1.13	1.06	0.986	0.974	1.09	1.05	0.98	0.937	0.983	0.962
